Reference: US10292989B2, “General anesthetics that are not neurotoxic” (University of Virginia Patent Foundation, priority 2014, dated 2019)

Tests used:
[1] = target: T1, T-channels in rat DRG neurons (Rattus norvegicus, UniProt Q9EQ60); conditions: cited from earlier work
T1 construct: endogenous in cells; host or cells: acutely dissociated rat DRG neurons

[2] = tested on: activated caspase-3 in developing brain; experiment: Activated caspase-3 staining of vulnerable brain regions in PND7 rat pups
adult monkeys = experiment: Acute anesthetic doses in adult monkeys, cardiac arrhythmias; type: in vivo, monkey; conditions: acute applications of anesthetic doses, preliminary study, data not shown
Text: Although no preclinical data are currently available on the long-term use of 3β-OH, ECN, and related neuroactive steroids, previous evaluation of the safety of non-steroidal blockers of T-channels such as TTA compounds in dogs has disclosed no cardiovascular side effects.

adult naïve rats = experiment: Thermal paw withdrawal latency after i.t. injection in naive rats; type: in vivo, rat
Experimental: a. […] We began by studying the role of postsynaptic T-channels in DH neurons using current-clamp recording from unidentified lamina I-II DH neurons in spinal cord slices in vitro. To exclude synaptic currents, our external solution contained 20 μM picrotoxin, 50 μM d-APV and 5 μM NBQX to block inhibitory and excitatory synaptic currents, respectively. We first injected −300 pA of current via the recording electrode for 500 ms, which hyperpolarized the resting membrane potential (RMP) and allowed T-channels to recover from inactivation. This protocol served to assess input resistance (Rin) and to evoke rebound action potential (AP) firing. The top line in FIG. 3A depicts the protocol of current injection while bottom traces represent membrane responses. […] To investigate the possible role of T-channels in spinal nociceptive transmission in vivo, we used intrathecal (i.t.) injections and measured thermal nociceptive responses to noxious heat in adult naïve rats using methods as we described elsewhere (Messinger et al., 2009; Obradovic et al., 2014, PLoS ONE 9(4): e91467. doi:10.1371/journal.pone.0091467). For i.t. injections, rats were briefly anesthetized with 1.5-2% isoflurane and thermal paw withdrawal latencies (PWLs) were measured starting from 30 minutes following injection. […]

GABAA currents = conditions: cited from earlier work
[3] = tested on: young adolescent rats (P20-29); experiment: Loss of righting reflex (LORR) in young adolescent rats, i.p.; type: in vivo; conditions: Rattus norvegicus, ip; rats of both sexes P20-29, i.p., 15% β-cyclodextrin; read-out: estimated ED50 for loss of righting reflex (LORR)
Experimental: (§2) For in vivo experiments, steroids were freshly dissolved in 15% β-cyclodextrin solution and injected intraperitoneally (i.p.) at escalating doses from 5 to 75 mg/kg.

[4] = tested on: T-currents in nucleus reticularis thalami (nRT); conditions: cited from earlier work
[5] = tested on: rats with hind paw incision; experiment: Thermal hyperalgesia after plantar skin and deep tissue incision (PWL); type: in vivo, rat
Experimental: In order to study the potential role of neuroactive steroids in perioperative analgesia we used a model of a plantar incision of skin and deep tissue in the hind paw of rats. Starting 2 hours after operation, thermal hyperalgesia to nociceptive heat stimuli was assessed measuring thermal PWLs. As depicted in FIG. 5, thermal hyperalgesia is profound up to two days after surgery as evidenced by attenuated PWLs in incised (right) paws by about 70% when compared to unincised (left) paws in the same animals. This gradually resolved and returned to near preoperative baseline values within 7 days. Note that thermal PWLs in unincised paws remained stable during this period.
Next, we examined the ability of 3β-OH to influence thermal hyperalgesia in this rat model of perioperative pain. […] We applied the same dose of steroid or vehicle i.t. at 2, 24 and 48 hours after surgery and measured thermal PWLs in both paws (unincised paws, top panel of FIG. 6; incised paws, bottom panel of FIG. 6) at 30 minute intervals from 30-180 minutes after surgery in order to assess the time course and possible tolerance to any analgesic and antihyperalgesic effect of 3β-OH. FIG. 6 summarizes average results from multiple animals (6-13 per group). It is noteworthy that 3β-OH had little effect on thermal PWLs when compared to vehicle in incised paws when applied 2 hours after incision (bottom panel, filled round symbols) while in contralateral unincised paws (top panel, filled round symbols) the same dose induced analgesia at the 30 and 60 minute time points as evidenced by increased PWLs when compared to vehicle injections (top panel, filled circles). Furthermore, subsequent i.t. injections of 3β-OH at 24 hours (open squares) and 48 hours (filled triangles) induced long-lasting progressive anti-hyperalgesia in incised paws (bottom panel) with return of thermal PWLs to near baseline pre-incisional values measured at 180 minutes after injection (48 hours group). For example, at 48 hours post-surgery the average PWL of incised paws at 180 minutes post vehicle injection was about 4 seconds, while at 180 minutes post steroid injection PWLs were prolonged to about 9 seconds and approached pre-incisional values. In contrast, in unincised paws the same injections of 3β-OH induced analgesia of similar magnitude to the analgesia produced when steroid was injected 2 hours post-surgery, measuring in average 14-15 seconds on thermal PWLs (top panel).
We next tested the idea that locally applied 3β-OH may abolish thermal hyperalgesia after paw incision. For these experiments we first obtained baseline (pre-incision) thermal PWLs (about 10 seconds) and repeated measurements 2 hours after surgery (about 2.5 seconds). We then injected (arrow on FIG. 7A) directly into the incised paw either 16 μg or 48 μg of 3β-OH in 100 μl of saline that was pH adjusted to 7.4 (n=6 rats in each group). We recorded PWLs for three consecutive days after injections.
Note that PWLs in noninjected (unincised) paws (black squares and red diamonds) remained stable indicating lack of any systemic effect. […] For these experiments depicted on FIG. 7B, we first obtained pre-incision PWLs, and then injected 16 μg of 3β-OH repeatedly at the following time points: 2 hours, day 1, 2, 3 and 5 after post-surgery (n=6 rats). As shown on FIG. 7B (red symbols) repeated injections of steroid induced progressive anti-hyperalgesia from day 1 to day 5 post surgery with increase in PWLs from 50-90% when compared to PWLs in incised paws injected with vehicle (*, p<0.05; **, p<0.01; ***, p<0.001).

rats [6] = experiment: Sensorimotor tests (inclined plane, platform, ledge); type: in vivo, rat; conditions: 16 μg i.t., 60 min after injection
Experimental: b. 3β-OH induces potent dose-dependent spinally-mediated analgesia in naïve rats. To assess its potential for spinally mediated analgesia, we injected 4 escalating doses of 3β-OH i.t. (from 0.003 to 16 μg) dissolved in 50 μL of vehicle (15% β-cyclodextrin) and measured thermal PWLs at 30 minutes intervals up to 150 minutes after injections. […] The analgesic effect was long-lasting, with higher doses of 3β-OH increasing PWLs by about 25-30% at 150 minutes post-injections. Note that PWLs remained stable in both paws during injections of vehicle (red lines). We also considered the possibility that i.t. injected 3β-OH may non-specifically affect performance by decreasing motor strength and/or coordination. […] Rats (n=6), were tested using an inclined plane, platform, and ledge before injection of the highest dose of 3β-OH (16 μg i.t.) and at 60 min after injection, corresponding to the time of maximal analgesia (FIG. 4).

rat pups (PND7) [7] = experiment: Lethality (LD50) in PND7 rat pups; conditions: LD50 vs ED50 for LORR
[8] = Lethality (LD50) in PND7 rat pups; conditions: rat, in vivo, ip
rats [9] = experiment: 8-arm radial arm maze (RAM) after exposure at PND7; type: in vivo, rat
Experimental: (§1) To assess cognitive abilities of our rats we tested their spatial working memory using the 8-arm radial arm maze test (RAM). We began by comparing the overall appearance and daily weight of rats in each group (saline, cyclodextrin, 3β-OH at 10 mg/kg and ketamine at 40 mg/kg) since nutritional status and general state of health are critically important for cognitive development. Based on their general appearance, rats in different groups could not be distinguished from each other. Similarly, there was no difference in daily weight gain among the groups (FIG. 13A). The time points when the animals were treated (PND 7), food restricted (from PND 45), tested on the RAM (from PND 53) and permitted to eat ad libitum (from PND 70) are indicated on the graph. Food restriction, a necessary component of the RAM learning protocol, was limited so that no rat lost more than 10%-15% of its body weight.
To further scrutinize how the acquisition rate of 3β-OH-treated rats compares to ketamine and vehicle groups, we plotted the cumulative percent scores for ketamine-treated animals relative to recorded cumulative percent scores for other groups, using a percent-percent plot (p-p plot) (FIG. 14). […] The learning behavior of 3β-OH-treated rats is similar to that of sham controls resulting in a large gap (shaded area) in learning ability between ketamine-treated (lower blue dotted line) and 3β-OH-treated animals (upper red dotted line). A slight slowing in the acquisition rate observed with 3β-OH-treated rats when compared to vehicle controls (saline—SAL and cyclodextrin—CYCL) during the mid-portion of training (as discussed in FIG. 13C) is highlighted with rectangles.

[10] = Daily weight gain after exposure at PND7; type: in vivo, rat; conditions: 3β-OH at 10 mg/kg, ketamine at 40 mg/kg, treated PND 7
Experimental: as §1

rat pups (PND7) [11] = experiment: Loss of righting reflex (LORR) in PND7 rat pups, i.p.
[12] = tested on: adult female C57Bl/6 mice; experiment: Loss of righting reflex (LORR) in adult female C57Bl/6 mice, i.p.; type: in vivo, mouse
Experimental: as §2

[13] = target: T2, recombinant human Cav2.3 channels (Homo sapiens, UniProt Q15878); experiment: Recombinant human Cav2.3 currents in HEK 293 cells; type: cell-based; conditions: HEK293, read-out: inhibition of recombinant Cav2.3 currents (of control pre-drug values)
T2 construct: expressed in transfected cells
Text: Here, we examined the sensitivity of recombinant human Cav2.3 channels stably expressed in human embryonic kidney (HEK) 293 cells to 3β-OH.

NMDA currents = conditions: cited from earlier work

T1 sequence (Q9EQ60 whole entry): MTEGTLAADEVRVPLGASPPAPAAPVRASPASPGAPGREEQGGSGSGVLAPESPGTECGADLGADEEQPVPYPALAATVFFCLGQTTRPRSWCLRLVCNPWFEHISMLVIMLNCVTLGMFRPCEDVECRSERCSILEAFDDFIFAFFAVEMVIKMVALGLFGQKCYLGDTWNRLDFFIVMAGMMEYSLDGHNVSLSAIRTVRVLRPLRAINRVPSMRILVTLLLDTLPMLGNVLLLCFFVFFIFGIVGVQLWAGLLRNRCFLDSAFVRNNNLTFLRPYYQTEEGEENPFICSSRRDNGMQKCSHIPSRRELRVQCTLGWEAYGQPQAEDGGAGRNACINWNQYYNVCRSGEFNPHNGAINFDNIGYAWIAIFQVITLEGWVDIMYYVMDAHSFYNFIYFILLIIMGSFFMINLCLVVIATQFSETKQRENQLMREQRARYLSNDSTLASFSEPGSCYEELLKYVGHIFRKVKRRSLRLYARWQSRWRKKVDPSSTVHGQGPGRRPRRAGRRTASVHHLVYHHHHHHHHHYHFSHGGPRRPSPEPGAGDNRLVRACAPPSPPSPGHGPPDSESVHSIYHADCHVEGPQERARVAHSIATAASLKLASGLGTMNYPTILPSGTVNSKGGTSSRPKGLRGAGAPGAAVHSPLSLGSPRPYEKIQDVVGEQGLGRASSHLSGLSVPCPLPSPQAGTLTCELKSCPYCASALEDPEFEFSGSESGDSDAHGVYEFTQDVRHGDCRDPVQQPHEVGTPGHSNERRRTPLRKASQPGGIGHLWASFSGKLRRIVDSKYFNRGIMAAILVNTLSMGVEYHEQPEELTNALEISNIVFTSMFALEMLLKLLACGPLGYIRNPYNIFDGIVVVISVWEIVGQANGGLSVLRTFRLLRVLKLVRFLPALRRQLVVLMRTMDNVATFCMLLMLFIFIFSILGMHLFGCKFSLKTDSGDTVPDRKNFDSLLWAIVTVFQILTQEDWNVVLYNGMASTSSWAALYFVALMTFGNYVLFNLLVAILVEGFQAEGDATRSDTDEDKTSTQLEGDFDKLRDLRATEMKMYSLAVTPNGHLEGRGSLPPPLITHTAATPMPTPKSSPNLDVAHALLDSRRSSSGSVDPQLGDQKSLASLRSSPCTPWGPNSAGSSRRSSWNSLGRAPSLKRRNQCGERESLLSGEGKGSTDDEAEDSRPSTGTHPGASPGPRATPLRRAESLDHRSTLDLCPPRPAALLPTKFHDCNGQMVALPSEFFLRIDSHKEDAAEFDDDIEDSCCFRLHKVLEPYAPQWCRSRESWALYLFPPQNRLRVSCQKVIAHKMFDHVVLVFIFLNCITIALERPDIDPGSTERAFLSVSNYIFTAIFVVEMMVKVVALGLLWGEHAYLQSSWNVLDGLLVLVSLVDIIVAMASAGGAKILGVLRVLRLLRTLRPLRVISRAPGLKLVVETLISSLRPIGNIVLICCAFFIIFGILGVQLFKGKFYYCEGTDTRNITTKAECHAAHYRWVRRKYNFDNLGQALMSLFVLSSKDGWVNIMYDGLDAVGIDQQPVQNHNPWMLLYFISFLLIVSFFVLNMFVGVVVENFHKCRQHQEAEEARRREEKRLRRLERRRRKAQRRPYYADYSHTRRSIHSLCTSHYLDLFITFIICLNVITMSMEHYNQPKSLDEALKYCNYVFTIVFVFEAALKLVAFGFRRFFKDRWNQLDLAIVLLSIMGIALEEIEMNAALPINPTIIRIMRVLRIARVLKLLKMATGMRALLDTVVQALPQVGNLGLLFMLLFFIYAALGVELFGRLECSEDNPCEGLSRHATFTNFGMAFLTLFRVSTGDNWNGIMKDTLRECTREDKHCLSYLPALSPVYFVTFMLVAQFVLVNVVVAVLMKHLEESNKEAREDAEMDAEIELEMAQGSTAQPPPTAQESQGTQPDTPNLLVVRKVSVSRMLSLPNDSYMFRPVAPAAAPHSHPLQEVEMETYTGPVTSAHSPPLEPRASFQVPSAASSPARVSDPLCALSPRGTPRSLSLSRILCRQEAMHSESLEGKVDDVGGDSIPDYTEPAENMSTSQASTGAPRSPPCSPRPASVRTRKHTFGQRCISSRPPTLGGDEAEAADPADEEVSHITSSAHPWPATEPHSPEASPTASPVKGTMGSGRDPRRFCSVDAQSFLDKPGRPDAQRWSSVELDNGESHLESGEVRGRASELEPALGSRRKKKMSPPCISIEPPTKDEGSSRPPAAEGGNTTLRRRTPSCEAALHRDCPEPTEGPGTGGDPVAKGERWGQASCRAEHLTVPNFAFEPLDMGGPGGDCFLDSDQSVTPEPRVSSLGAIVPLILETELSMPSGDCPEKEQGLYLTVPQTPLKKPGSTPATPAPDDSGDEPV
T2 sequence (Q15878 whole entry): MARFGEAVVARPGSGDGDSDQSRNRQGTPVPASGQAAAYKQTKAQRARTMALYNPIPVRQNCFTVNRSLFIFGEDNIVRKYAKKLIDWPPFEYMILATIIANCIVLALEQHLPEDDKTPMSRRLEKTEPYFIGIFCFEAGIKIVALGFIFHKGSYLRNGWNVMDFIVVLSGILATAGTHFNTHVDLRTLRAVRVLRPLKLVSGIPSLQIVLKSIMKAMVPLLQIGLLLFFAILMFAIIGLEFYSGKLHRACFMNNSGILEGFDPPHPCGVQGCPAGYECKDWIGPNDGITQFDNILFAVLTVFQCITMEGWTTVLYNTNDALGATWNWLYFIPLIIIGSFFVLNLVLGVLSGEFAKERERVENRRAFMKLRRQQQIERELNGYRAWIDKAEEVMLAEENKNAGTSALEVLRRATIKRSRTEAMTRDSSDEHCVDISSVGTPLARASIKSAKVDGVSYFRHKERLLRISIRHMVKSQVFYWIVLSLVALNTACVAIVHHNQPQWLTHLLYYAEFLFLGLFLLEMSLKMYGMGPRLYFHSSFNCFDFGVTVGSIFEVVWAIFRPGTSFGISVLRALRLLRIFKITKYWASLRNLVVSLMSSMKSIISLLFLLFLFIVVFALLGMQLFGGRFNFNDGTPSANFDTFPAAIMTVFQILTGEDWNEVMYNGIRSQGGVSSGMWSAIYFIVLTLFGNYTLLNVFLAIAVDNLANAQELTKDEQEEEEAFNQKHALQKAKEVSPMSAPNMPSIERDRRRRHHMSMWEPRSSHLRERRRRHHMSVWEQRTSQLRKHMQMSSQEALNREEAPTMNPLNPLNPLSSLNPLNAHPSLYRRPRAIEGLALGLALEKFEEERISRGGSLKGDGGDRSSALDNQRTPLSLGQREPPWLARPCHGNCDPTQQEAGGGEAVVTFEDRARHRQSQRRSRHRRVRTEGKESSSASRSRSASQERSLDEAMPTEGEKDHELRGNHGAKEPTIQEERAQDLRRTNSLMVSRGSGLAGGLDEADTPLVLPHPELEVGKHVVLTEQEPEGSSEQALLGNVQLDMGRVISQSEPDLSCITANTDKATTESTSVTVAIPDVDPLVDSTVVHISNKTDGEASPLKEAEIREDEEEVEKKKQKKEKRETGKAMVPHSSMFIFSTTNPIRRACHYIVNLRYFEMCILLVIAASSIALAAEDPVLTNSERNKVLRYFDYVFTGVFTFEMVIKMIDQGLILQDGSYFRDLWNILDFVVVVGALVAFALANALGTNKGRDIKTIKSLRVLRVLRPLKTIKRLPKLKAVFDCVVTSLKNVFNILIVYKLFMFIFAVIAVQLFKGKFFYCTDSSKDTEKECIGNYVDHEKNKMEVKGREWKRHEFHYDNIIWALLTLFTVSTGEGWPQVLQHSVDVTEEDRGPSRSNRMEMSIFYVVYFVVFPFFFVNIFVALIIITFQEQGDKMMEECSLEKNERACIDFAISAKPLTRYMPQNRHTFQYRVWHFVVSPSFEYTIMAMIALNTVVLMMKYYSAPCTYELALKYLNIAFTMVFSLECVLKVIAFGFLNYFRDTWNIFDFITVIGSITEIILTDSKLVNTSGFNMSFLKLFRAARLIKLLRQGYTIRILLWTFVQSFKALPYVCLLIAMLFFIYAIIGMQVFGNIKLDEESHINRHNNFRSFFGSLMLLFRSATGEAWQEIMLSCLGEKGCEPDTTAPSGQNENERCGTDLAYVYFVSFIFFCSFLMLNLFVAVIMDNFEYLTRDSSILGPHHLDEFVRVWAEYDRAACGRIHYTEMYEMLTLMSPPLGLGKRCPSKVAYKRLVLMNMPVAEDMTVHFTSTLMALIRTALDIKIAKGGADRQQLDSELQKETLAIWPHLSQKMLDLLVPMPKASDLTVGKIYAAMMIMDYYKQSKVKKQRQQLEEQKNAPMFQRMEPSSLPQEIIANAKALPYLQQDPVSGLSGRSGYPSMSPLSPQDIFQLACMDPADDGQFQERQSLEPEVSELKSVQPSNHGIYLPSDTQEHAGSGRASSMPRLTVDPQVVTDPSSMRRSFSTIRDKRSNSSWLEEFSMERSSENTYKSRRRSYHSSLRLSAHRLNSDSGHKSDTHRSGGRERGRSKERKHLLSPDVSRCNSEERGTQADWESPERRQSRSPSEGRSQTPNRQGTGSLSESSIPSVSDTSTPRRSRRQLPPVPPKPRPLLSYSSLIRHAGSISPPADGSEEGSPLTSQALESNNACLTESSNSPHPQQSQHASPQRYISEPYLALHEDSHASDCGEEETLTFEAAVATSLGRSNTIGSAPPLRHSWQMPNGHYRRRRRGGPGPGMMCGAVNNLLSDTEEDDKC
T2 sequence (P54284 whole entry partner): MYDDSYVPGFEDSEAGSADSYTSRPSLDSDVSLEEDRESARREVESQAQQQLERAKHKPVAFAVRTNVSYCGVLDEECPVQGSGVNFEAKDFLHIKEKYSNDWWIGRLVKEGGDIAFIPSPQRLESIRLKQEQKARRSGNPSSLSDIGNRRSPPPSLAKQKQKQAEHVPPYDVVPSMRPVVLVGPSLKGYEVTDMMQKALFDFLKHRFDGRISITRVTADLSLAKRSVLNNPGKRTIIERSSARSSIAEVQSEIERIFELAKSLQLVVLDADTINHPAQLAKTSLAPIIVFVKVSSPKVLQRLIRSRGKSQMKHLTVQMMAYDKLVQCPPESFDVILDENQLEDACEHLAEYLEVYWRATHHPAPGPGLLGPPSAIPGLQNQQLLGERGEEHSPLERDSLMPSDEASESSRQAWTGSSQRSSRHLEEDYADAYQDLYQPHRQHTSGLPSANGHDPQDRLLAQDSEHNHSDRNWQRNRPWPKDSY

Compound: C[C@]12CC[C@H](O)C[C@H]1CC[C@@H]1[C@@H]2CC[C@]2(C)[C@@H](C#N)CC[C@@H]12 [3β-OH, (3β,5β,17β)-3-hydroxyandrostane-17-carbonitrile]
- maximal block of T-current ([1]; DRG neurons): 100%
- IC50 ([1]; acutely dissociated DRG cells, read-out: IC50, block of T-currents in DRG cells): 3000 nM
- apoptotic (caspase-3) activation compared with vehicle ([2]; 5 mg/kg i.p. every hour, six doses, all examined regions except subiculum): did not cause significant apoptotic activation
- caspase-3 activation, twice higher dose compared with lower dose ([2]; 10 mg/kg vs 5 mg/kg i.p., 6 doses hourly): small increase
- caspase-3 activation at higher dose compared with vehicle ([2]; 3β-OH 10 mg/kg or ketamine 40 mg/kg i.p., 6 doses hourly, 3β-OH: except subiculum): no significant increase
- cardiac arrhythmias (adult monkeys): did not notice cardiac arrhythmias
- prolongation of PWLs over pre-injection baseline (adult naïve rats; i.t. 0.003 to 16 μg, 60 minutes post-injection): up to 80%
- increase of PWLs (adult naïve rats; i.t., higher doses, 150 minutes post-injection): 25-30%
- effect on GABAA currents (GABAA currents): devoid of any direct effects
- ED50 [3]: 16 ± 0.4 mg/kg
- IC50 [4]: 2000 nM
- increase in PWLs compared to incised paws injected with vehicle ([5]; 16 μg i.pl. repeated at 2 hours, day 1, 2, 3 and 5, day 1 to day 5): 50-90%
- thermal PWL of incised paw ([5]; 16 μg i.pl. single injection, day 1 after incision): about 6 seconds
- thermal PWL of incised paw vs vehicle ([5]; 16 μg i.pl. single injection, day 2): not significantly different
- effect on thermal PWLs vs vehicle in incised paws ([5]; 16 μg i.t. applied 2 hours after incision): little effect
- thermal PWL of unincised paws ([5]; 16 μg i.t. at 24 and 48 hours post-surgery): 14 to 15 s
- thermal PWL of incised paws ([5]; 16 μg i.t., 48 hours post-surgery, 180 minutes post injection, vehicle about 4): about 9 seconds
- thermal PWL of incised paw ([5]; 48 μg i.pl. single injection, day 1 post incision): about 6.5 seconds
- thermal PWL of incised paw ([5]; 48 μg i.pl. single injection, day 2 post incision): about 7 seconds
- time after surgery for which hyperalgesia is reduced ([5]; data not shown): at least 48 hours
- sensorimotor responses after vs before injection (rats [6]): did not differ significantly
- therapeutic index (rat pups (PND7) [7]): about 22
- LD50 [8]: 61.9 ± 4.6 mg/kg
- days required to reach learning criterion in RAM (rats [9]; 3β-OH at 10 mg/kg, ketamine at 40 mg/kg at PND 7, tested from PND 53): indistinguishable from vehicle animals
- rats reaching criterion in the allotted time (rats [9]; p-p plot): 100%
- rats that had reached criterion at the same point of training (p-p plot) (rats [9]; rat, in vivo): roughly half
- daily weight gain among the groups [10]: no difference
- calculated EC50 (duration of LORR) (rat pups (PND7) [11]; PND7 rat pups, i.p.): 34.5 ± 3.7 mg/kg
- ED50 (rat pups (PND7) [11]; Rattus norvegicus, ip, read-out: calculated ED50 for LORR): 2.9 ± 0.28 mg/kg
- equipotent dose comparable to ketamine 40 mg/kg (rat pups (PND7) [11]; i.p., based on LORR): 10 mg/kg
- equipotent single dose comparable to ketamine 20 mg/kg (rat pups (PND7) [11]; i.p., based on LORR): 5 mg/kg
- duration of LORR ([12]; 75 mg/kg dose): up to 50 min
- ED50 ([12]; Mus musculus, ip, adult female C57Bl/6 mice): 46 ± 2 mg/kg
- inhibition at 3 µM [13]: 38 ± 4%
- effect on postsynaptic NMDA currents (NMDA currents): devoid of any direct effects
